≈ marks a conversion by molar mass, not a printed value. Counter-ions that a name gives are not always drawn. Like-named read-outs stand apart in the source and are kept apart here.
Tests used:
Assay type in all cases: cell-based
[1] = system: Bacillus subtilis ATCC 6633; assay: Broth microdilution MIC, B. subtilis ATCC 6633; details: read-out: MIC B. subtilis ATCC 6633
Summary of the method: (§1)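 Two-fold dilutions from 64 to 0.0625 μg/ml final, 1% DMSO, were inoculated at ~5.0×10^5 cfu/ml in the strain's test medium and kept 20 h at 37 °C in ambient atmosphere. Colonies were grown on MHA, with S. pneumoniae on blood agar under 5% CO2.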

[2] = system: Enterococcus faecium ATCC 700221 (VRE); assay: Broth microdilution MIC, E. faecium ATCC 700221 (VRE); details: Enterococcus faecium, read-out: MIC E. faecium ATCC 700221 (VRE)
Summary of the method: as §1

[3] = system: Streptococcus pneumoniae ATCC 49619; assay: Broth microdilution MIC, S. pneumoniae ATCC 49619; details: read-out: MIC S. pneumoniae ATCC 49619
Summary of the method: as §1

[4] = system: Staphylococcus aureus ATCC 29213 (MSSA); assay: Broth microdilution MIC, S. aureus ATCC 29213 (MSSA); details: read-out: MIC S. aureus ATCC 29213 (MSSA)
Summary of the method: as §1

[5] = system: Staphylococcus aureus NRS384 (MRSA); assay: Broth microdilution MIC, S. aureus NRS384 (MRSA); details: Staphylococcus aureus, read-out: MIC NRS 384 (MRSA)
Summary of the method: as §1

[6] = system: Enterococcus faecalis ATCC 29212; assay: Broth microdilution MIC, E. faecalis ATCC 29212; details: read-out: MIC E. faecalis ATCC 29212
Summary of the method: as §1

[7] = system: Escherichia coli ATCC 25922; assay: Broth microdilution MIC, E. coli ATCC 25922 (MHIIB w & w/o 4 mM EDTA); details: for MIC: Escherichia coli, read-out: MIC E. coli ATCC 25922; for MIC E. coli ATCC 25922 + 4 mM EDTA: with 4 mM EDTA
Summary of the method: as §1

[8] = ATCC6633, broth microdilution, 37° C., 20 hours
[9] = broth microdilution, 37° C., 20 hours
[10] = ATCC49619, broth microdilution, 37° C., 20 hours
[11] = ATCC29212, broth microdilution, 37° C., 20 hours
[12] = ATCC25922, without EDTA, broth microdilution, 37° C., 20 hours

Row | Structure (SMILES) | MIC [1, 8] [µg/mL] | MIC [2, 9] [µg/mL] | MIC [3, 10] [µg/mL] | MIC [4, 9] [µg/mL] | MIC [5, 9] [µg/mL] | MIC [6, 11] [µg/mL] | MIC [7, 12] [µg/mL] | MIC E. coli ATCC 25922 + 4 mM EDTA [7, 9] | MIC ([1]; ATCC6633, 20 h) [µg/mL] | MIC ([2]; 20 h) [µg/mL] | MIC ([3]; ATCC49619, 20 h) [µg/mL] | MIC ([4]; 20 h) [µg/mL] | MIC ([5]; 20 h) [µg/mL] | MIC ([6]; ATCC29212, 20 h) [µg/mL] | MIC ([7]; ATCC25922, 20 h) [µg/mL]
1 | Cl.O=C(O)C1(Cn2ncc3nc(NCc4ccc(Cl)c(Cl)c4)[nH]c(=O)c32)CCNCC1 [Compound 196, 4-((5-((3,4-dichlorobenzyl)amino)-7-oxo-6,7-dihydro-1H-pyrazolo[4,3-d]pyrimidin-1-yl)methyl)piperidine-4-carboxylic acid hydrochloride] | > 64 | > 64 | > 64 | > 64 | > 64 | > 64 | > 64 | >64 µg/mL | – | – | – | – | – | – | –
2 | C[Si](C)(C)CCOCNC(=O)Cn1ncc2nc(NCc3ccc(Cl)c(Cl)c3)[nH]c(=O)c21 [Compound 197, 2-(5-((3,4-dichlorobenzyl)amino)-7-oxo-6,7-dihydro-1H-pyrazolo[4,3-d]pyrimidin-1-yl)-N-((2-(trimethylsilyl)ethoxy)methyl)acetamide] | > 64 | > 64 | > 64 | > 64 | > 64 | > 64 | > 64 | >64 µg/mL | – | – | – | – | – | – | –
3 | CNC(=O)C(C)(C)CCCn1ncc2nc(NCc3ccc(Cl)c(Cl)c3)[nH]c(=O)c21 [Compound 198, 5-(5-((3,4-dichlorobenzyl)amino)-7-oxo-6,7-dihydro-1H-pyrazolo[4,3-d]pyrimidin-1-yl)-N,2,2-trimethylpentanamide] | 4 (≈ 8.86 µM) | 16 (≈ 35.4 µM) | 16 (≈ 35.4 µM) | 16 (≈ 35.4 µM) | 16 (≈ 35.4 µM) | 16 (≈ 35.4 µM) | > 64 | >64 µg/mL | – | – | – | – | – | – | –
4 | CC(C)(CCCn1ncc2nc(NCc3ccc(Cl)c(Cl)c3)[nH]c(=O)c21)C(=O)O [Compound 199, 5-(5-((3,4-Dichlorobenzyl)amino)-7-oxo-6,7-dihydro-1H-pyrazolo[4,3-d]pyrimidin-1-yl)-2,2-dimethylpentanoic acid] | 32 (≈ 73 µM) | 8 (≈ 18.3 µM) | 8 (≈ 18.3 µM) | 16 (≈ 36.5 µM) | 16 (≈ 36.5 µM) | 16 (≈ 36.5 µM) | > 64 | >64. ug/ml | – | – | – | – | – | – | –
5 | CNC(=O)C(CCCn1ncc2nc(NCc3ccc(Cl)c(Cl)c3)[nH]c(=O)c21)c1ccccc1 (stereo not shown) [Compound 200, 5-(5-((3,4-dichlorobenzyl)amino)-7-oxo-6,7-dihydro-1H-pyrazolo[4,3-d]pyrimidin-1-yl)-N-methyl-2-phenylpentanamide] | 2 (≈ 4 µM) | 8 (≈ 16 µM) | 16 (≈ 32 µM) | 8 (≈ 16 µM) | 8 (≈ 16 µM) | 16 (≈ 32 µM) | > 64 | >64 µg/mL | – | – | – | – | – | – | –
6 | O=C(O)C(CCCn1ncc2nc(NCc3ccc(Cl)c(Cl)c3)[nH]c(=O)c21)c1ccccc1 (stereo not shown) [Compound 201, 5-(5-((3,4-dichlorobenzyl)amino)-7-oxo-6,7-dihydro-1H-pyrazolo[4,3-d]pyrimidin-1-yl)-2-phenylpentanoic acid] | 64 (≈ 132 µM) | 16 (≈ 32.9 µM) | 16 (≈ 32.9 µM) | 32 (≈ 65.8 µM) | 32 (≈ 65.8 µM) | 32 (≈ 65.8 µM) | > 64 | >64. ug/ml | – | – | – | – | – | – | –
7 | CC(CCCn1ncc2nc(NCc3ccc(Cl)c(Cl)c3)[nH]c(=O)c21)C(=O)O (stereo not shown) [Compound 202, 5-(5-((3,4-dichlorobenzyl)amino)-7-oxo-6,7-dihydro-1H-pyrazolo[4,3-d]pyrimidin-1-yl)-2-methylpentanoic acid] | 32 (≈ 75.4 µM) | 16 (≈ 37.7 µM) | 8 (≈ 18.9 µM) | 32 (≈ 75.4 µM) | 32 (≈ 75.4 µM) | 32 (≈ 75.4 µM) | > 64 | >64 µg/mL | – | – | – | – | – | – | –
8 | CCOC(=O)CCCCn1ncc2nc(NCc3ccc(Cl)c(Cl)c3)[nH]c(=O)c21 [Compound 203, ethyl 5-(5-((3,4-dichlorobenzyl)amino)-7-oxo-6,7-dihydro-1H-pyrazolo[4,3-d]pyrimidin-1-yl)pentanoate] | 0.5 (≈ 1.14 µM) | 2 (≈ 4.56 µM) | 8 (≈ 18.3 µM) | 2 (≈ 4.56 µM) | 2 (≈ 4.56 µM) | > 64 | > 64 | >64 µg/mL | – | – | – | – | – | – | –
9 | CC(C)OC(=O)CCCCn1ncc2nc(NCc3ccc(Cl)c(Cl)c3)[nH]c(=O)c21 [Compound 204, isopropyl 5-(5-((3,4-dichlorobenzyl)amino)-7-oxo-6,7-dihydro-1H-pyrazolo[4,3-d]pyrimidin-1-yl)pentanoate] | 1 (≈ 2.21 µM) | 2 (≈ 4.42 µM) | 16 (≈ 35.4 µM) | 4 (≈ 8.84 µM) | 2 (≈ 4.42 µM) | > 64 | > 64 | >64 µg/mL | – | – | – | – | – | – | –
10 | CCOC(=O)CCCn1ncc2nc(NCc3ccc(Cl)c(Cl)c3)[nH]c(=O)c21 [Compound 205, ethyl 4-(5-((3,4-dichlorobenzyl)amino)-7-oxo-6,7-dihydro-1H-pyrazolo[4,3-d]pyrimidin-1-yl)butanoate] | 1 (≈ 2.36 µM) | 2 (≈ 4.71 µM) | 8 (≈ 18.9 µM) | 4 (≈ 9.43 µM) | 2 (≈ 4.71 µM) | 4 (≈ 9.43 µM) | > 64 | >64 µg/mL | – | – | – | – | – | – | –
11 | CC(C)OC(=O)CCCn1ncc2nc(NCc3ccc(Cl)c(Cl)c3)[nH]c(=O)c21 [Compound 206, isopropyl 4-(5-((3,4-dichlorobenzyl)amino)-7-oxo-6,7-dihydro-1H-pyrazolo[4,3-d]pyrimidin-1-yl)butanoate] | 1 (≈ 2.28 µM) | 4 (≈ 9.13 µM) | 16 (≈ 36.5 µM) | > 64 | > 64 | > 64 | > 64 | >64 µg/mL | – | – | – | – | – | – | –
12 | O=c1[nH]c(NCc2ccc(Cl)c(Cl)c2)nc2cnn(C[C@@H]3CO[C@@H](CO)CO3)c12 [Compound 207, 5-((3,4-dichlorobenzyl)amino)-1-(((2R,5S)-5-(hydroxymethyl)-1,4-dioxan-2-yl)methyl)-1H-pyrazolo[4,3-d]pyrimidin-7(6H)-one] | 2 (≈ 4.54 µM) | 4 (≈ 9.08 µM) | 8 (≈ 18.2 µM) | 16 (≈ 36.3 µM) | 16 (≈ 36.3 µM) | 8 (≈ 18.2 µM) | > 64 | >64 µg/mL | – | – | – | – | – | – | –
13 | O=c1[nH]c(NCc2ccc(Cl)c(Cl)c2)nc2cnn(C[C@@H]3CO[C@H](CO)CO3)c12 [Compound 208, 5-((3,4-dichlorobenzyl)amino)-1-(((2R,5R)-5-(hydroxymethyl)-1,4-dioxan-2-yl)methyl)-1H-pyrazolo[4,3-d]pyrimidin-7(6H)-one] | 2 (≈ 4.54 µM) | 4 (≈ 9.08 µM) | 8 (≈ 18.2 µM) | 16 (≈ 36.3 µM) | 16 (≈ 36.3 µM) | 8 (≈ 18.2 µM) | > 64 | >64 µg/mL | – | – | – | – | – | – | –
14 | O=C(O)CCCCn1nc(F)c2nc(NCc3ccc(Cl)c(Cl)c3)[nH]c(=O)c21 [Compound 209, 5-(5-((3,4-dichlorobenzyl)amino)-3-fluoro-7-oxo-6,7-dihydro-1H-pyrazolo[4,3-d]pyrimidin-1-yl)pentanoic acid] | 4 (≈ 9.34 µM) | 1 (≈ 2.34 µM) | 4 (≈ 9.34 µM) | 8 (≈ 18.7 µM) | 16 (≈ 37.4 µM) | 4 (≈ 9.34 µM) | > 64 | >64 µg/mL | – | – | – | – | – | – | –
15 | O=C(O)CCCCn1nc(F)c2nc(NCc3ccc(F)c(F)c3)[nH]c(=O)c21 [Compound 210, 5-(5-((3,4-Difluorobenzyl)amino)-3-fluoro-7-oxo-6,7-dihydro-1H-pyrazolo[4,3-d]pyrimidin-1-yl)pentanoic acid] | 64 (≈ 162 µM) | 16 (≈ 40.5 µM) | 16 (≈ 40.5 µM) | 32 (≈ 80.9 µM) | 64 (≈ 162 µM) | 32 (≈ 80.9 µM) | > 64 | >64 µg/mL | – | – | – | – | – | – | –
16 | O=c1[nH]c(NCc2ccc(Cl)c(Cl)c2)nc2cn(C3CCNC3)nc12 (stereo not shown) [Compound 215, 5-((3,4-Dichlorobenzyl)amino)-2-(pyrrolidin-3-yl)-2H-pyrazolo[4,3-d]pyrimidin-7(6H)-one TFA salt] | – | – | – | – | – | – | – | 64 µg/mL | 64 | > 64 | 16 | > 64 | > 64 | > 64 | > 64
17 | O=c1[nH]c(NCc2ccc(Cl)c(Cl)c2)nc2cnn(C3CCNC3)c12 (stereo not shown) [Compound 216, 5-((3,4-dichlorobenzyl)amino)-1-(pyrrolidin-3-yl)-1H-pyrazolo[4,3-d]pyrimidin-7(6H)-one TFA salt] | – | – | – | – | – | – | – | >64 µg/mL | 4 | 16 | 4 | 16 | 16 | 16 | > 64

— patent US10723741B1, “DNA polymerase IIIC inhibitors and use thereof” (Acurx Pharmaceuticals, LLC, priority 2018, dated 2020)
